Laboratory results reported in publication PMC5654968 (NPJ Systems Biology and Applications, 2017).
Like-named read-outs stand apart in the source and are kept apart here.

Type: in vivo, rat
Protocol: Distilled water and saline were administered as vehicle to rats in each control group. […] Plasma cytokine levels were measured by ELISA or multiplex immunoassay; common metabolites and lipid mediators were analyzed by GC-MS/MS and LC-MS/MS, respectively.
Pathway maps of lipid mediators were created by using CellDesigner 4.4 software (http://www.celldesigner.org). We evaluated the effects of the treatments on specific lipid mediators and categorized them according to COX, CYP and LOX pathways by Fisher’s exact test. The proinflammatory and anti-inflammatory indices were analyzed as described by Tam et al. with modification.[22]

[1] = first value of an incomplete line, time (2h or 4h) not assignable
[2] = PM/P (polyI:C+maoto vs polyI:C), 2h
[3] = PM/P (polyI:C+maoto vs polyI:C), 4h

SMILES | log2FC of plasma level | log2FC of plasma level [1] | log2FC of plasma level (M/C (maoto vs control), 2h) | log2FC of plasma level (M/C (maoto vs control), 4h) | log2FC of plasma level (P/C (polyI:C vs control), 2h) | log2FC of plasma level (P/C (polyI:C vs control), 4h) | log2FC of plasma level [2] | log2FC of plasma level [3]
CCCCC[C@H](O)/C=C/[C@@H]1[C@@H](C/C=C\CCCCCC(=O)O)[C@@H](O)C[C@H]1O [1a1b-dihomo-PGF2α] | 1.56 | 0.80 | – | – | – | – | – | –
CC/C=C\C/C=C\C/C=C\C/C=C\C/C=C\C=C\C(O)CCC(=O)O (stereo not drawn) [4-HDoHE] | – | – | 0.12 | -0.59 | -0.04 | 0.33 | 0.03 | -0.79
CCCCC/C=C\C/C=C\C/C=C\CC(O)C1CCCC(=O)O1 (stereo not drawn) [5,6-DHET-lactone] | -0.87 | 0.53 | – | – | – | – | – | –
CCCCC/C=C\C/C=C\C/C=C\CC(O)C(O)CCCC(=O)O (stereo not drawn) [5,6-DHET] | – | – | 0.42 | -0.54 | -0.14 | 0.11 | 0.23 | -0.71
CC/C=C\C/C=C\C/C=C\C/C=C\CC(O)C(O)CCCC(=O)O (stereo not drawn) [5,6-DiHETE] | – | – | -0.03 | -0.23 | -0.19 | 0.03 | -0.44 | -0.44
CCCCC/C=C\C/C=C\C/C=C\CC1OC1CCCC(=O)O (stereo not drawn) [5,6-EET] | – | – | -0.22 | -0.49 | -0.26 | 0.11 | 0.12 | -0.56
CC/C=C\C/C=C\C/C=C\C/C=C\C=C\C(O)CCCC(=O)O (stereo not drawn) [5-HEPE] | – | – | 0.39 | -0.35 | 0.16 | 0.04 | 0.10 | -0.47
CCCCC/C=C\C/C=C\C/C=C\C=C\[C@@H](O)CCCC(=O)O [5-HETE] | – | – | -0.06 | -0.47 | -0.07 | 0.39 | 0.01 | -0.73
CCCCCC=CCC=CCC=CC=CC(=O)CCCC(=O)O [5-KETE] | – | – | -0.29 | -0.45 | -0.18 | 0.36 | -0.02 | -0.67
CCCCC/C=C\C[C@@H]1[C@H](/C=C/C(O)CCCC(=O)O)[C@@H](O)C[C@H]1O (stereo partly drawn) [5-iPF2α-VI] | – | – | -0.16 | -0.25 | -0.73 | 0.38 | 0.75 | -0.41
CCCCCC(=O)CCC1C(O)CC(O)C1CC(=O)CCCCC(=O)O (stereo not drawn) [6,15-diketo-13,14-dihydro-PGF1α] | -0.52 | 1.63 | – | – | – | – | – | –
CCCCC[C@H](O)/C=C/[C@@H]1[C@@H](CC(=O)CCCCC(=O)O)[C@@H](O)C[C@H]1O [6-keto-PGF1α] | – | – | 0.16 | 0.08 | 1.21 | 0.67 | -0.35 | 0.01
CC/C=C\C/C=C\C/C=C\C/C=C\C=C\C(O)C/C=C\CCC(=O)O (stereo not drawn) [7-HDoHE] | – | – | 0.11 | -0.26 | 0.02 | 0.23 | -0.17 | -0.39
CCCCC/C=C\C/C=C\CC(O)C(O)C/C=C\CCCC(=O)O (stereo not drawn) [8,9-DHET] | – | – | 0.82 | -0.02 | 0.07 | 0.42 | 0.16 | -0.59
CCCCC/C=C\C/C=C\CC1OC1C/C=C\CCCC(=O)O (stereo not drawn) [8,9-EET] | – | – | -0.23 | -0.33 | -0.32 | 0.06 | 0.27 | -0.66
CC/C=C\C/C=C\C/C=C\C/C=C\CC(O)/C=C/C=C\CCC(=O)O (stereo not drawn) [8-HDoHE] | – | – | 0.09 | -0.20 | -0.07 | 0.23 | -0.15 | -0.44
